From patent US20230365624A1, “NOVEL ANGIOTENSIN I-CONVERTING ENZYME (ACE) INHIBITORY PEPTIDES” (Thai Union Group Public Company Limited, priority 2020, published 2023)
No end group written: not given here.

System: GI enzymes (pepsin and pancreatin)
Experiment: In vitro gastrointestinal (GI) digestion of synthetic peptides, with ACE inhibitory activity and α-amino group content before and after
Format: in vitro ADME
Conditions: pepsin pH 2.0, 37° C., 1 h, then pancreatin pH 7.5, 37° C., 2 h (FIG. 6)
Protocol: It is necessary for ACE inhibitory peptides to retain its activity in GI tract so that it can be absorbed into the bloodstream, where the peptide inhibitors can show their hypotensive effect. In vitro gastrointestinal digestion provides an easy process to imitate antihypertensive activity of peptides under oral administration. […] In vitro GI digestion was simulated according to the method of Zhu et al. (2008) with some modifications. One milligram of each sample was dissolved in 0.5 ml of 0.1 M KCl-HCl, and the pH was adjusted to 2.0 with 6 M HCl. Pepsin (1% enzyme/substrate, w/w) was added, and the mixture was incubated in a shaking water bath at 37° C. for 1 h, and the pH was then adjusted to pH 7.5. […] ACE inhibitory activity and α-amino groups content of the peptides before and after in vitro GI digestion were measured. […]
ACE inhibitory activity assay was carried out according to the methods of Cushman and Cheung (1971) and Wu et al. (2002) with some modifications. […] Absorbance was measured at 228 nm. The percentage of ACE inhibition was calculated as follows: […]
Content of α-amino groups was performed according to Adler-Nissen (1979). […] The mixture was left at room temperature for 30 min before an absorbance at 420 nm was monitored. […] The content of α-amino groups was expressed as leucine equivalents.

Sequence: VSVVQYSR [VSVVQYSR]
- Decrease of ACE inhibitory activity after GI digestion: ~19%
